Results reported in PubChem BioAssay (NCI).
“And” between values parts separate entries of the source, which are not always exact repeats. Equal values may be shown once.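 Cells were grown in 96-well plates and exposed to each compound for 48 hours at five concentrations; endpoints were interpolated linearly between bracketing concentrations, or set to the highest concentration if not reached. GI50 is the concentration that inhibits growth by half. TGI is the concentration that stops growth completely.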

Assays:
Experiment in all cases: NCI tumour cell line growth inhibition, 48 h
[1] = system: 786-0 renal
[2] = system: ACHN renal
[3] = system: COLO 205 colon
[4] = system: EKVX NSCLC
[5] = system: HOP-62 NSCLC
[6] = system: LOX IMVI melanoma
[7] = system: M14 melanoma
[8] = system: PC-3 prostate
[9] = system: RPMI-8226 leukemia
[10] = system: SF-539 CNS

Compound	GI50 [1]	TGI [1] [µM]	GI50 [2]	TGI [2] [µM]	GI50 [3]	TGI [3]	GI50 [4] [µM]	TGI [4]	GI50 [5]	TGI [5] [µM]	GI50 [6]	TGI [6] [µM]	GI50 [7]	TGI [7]	GI50 [8]	TGI [8] [µM]	GI50 [9]	TGI [9] [µM]	GI50 [10]	TGI [10]
C#COc1cccc(Nc2c(C#N)cnc3ncc(NC(=O)CCl)cc23)c1	36.6 µM	> 62.5	22.9 µM	> 62.5	40.1 µM	> 62.5 µM	> 62.5	> 62.5 µM	> 62.5 µM	> 62.5	28.8 µM	> 62.5	> 62.5 µM	> 62.5 µM	32.5 µM	> 62.5	> 62.5 µM	> 62.5	13.9 µM	37.6 µM
c1ccc2c(c1)c1c(c3ccccc32)CN2CCCC2C1 (centres undefined)	–	23.1	–	9.35	–	13.8 µM	–	> 100 µM	–	> 31.9	–	9.46	–	15.8 µM	–	13.4	–	> 24.2	–	10.7 µM
CC(C)(S)C(N)C(=O)O (centres undefined)	> 5000 µM	> 5000	> 5000 µM	> 5000	1180 µM	2880 µM and > 100 µM	1190	3600 µM and > 100 µM	> 5000 µM	> 5000	1590 µM	> 5000	4370 µM	> 5000 µM	1320 µM	> 5000	3830 µM	> 5000	1420 µM	4370 µM and > 100 µM
O=C(Nc1ccc(-n2ccc3c(NC(=O)c4ccccc4)nccc32)cc1)Nc1ccc(Cl)c(Cl)c1	1.01 µM	2.36	1.22 µM	4.29	1.42 µM	3.27 µM	4.83	44 µM	1.31 µM	2.75	0.503 µM	2.28	1.47 µM	2.93 µM	1.06 µM	> 26.6	0.482 µM	3.08	0.557 µM	2.41 µM
CCCCCOc1ccc(/C=N/Nc2cc(C)nc3ccc(Br)cc23)cc1	1.8 µM	3.43	1.77 µM	3.17	1.96 µM	3.72 µM	1.63	3.11 µM	1.73 µM	3.37	1.86 µM	3.64	1.88 µM	3.53 µM	1.55 µM	3.02	1.91 µM	4.17	1.76 µM	3.23 µM
OCc1ccn2c1[C@@H](O)CC2	–	> 100	–	> 100	–	> 100 µM	–	> 100 µM	–	> 100	–	> 100	–	> 100 µM	–	> 100	–	> 100	–	> 100 µM
O=C(O)c1ccc(OCc2ccccc2)c(Cl)c1	–	> 100	–	> 100	–	> 100 µM	–	> 100 µM	–	> 100	–	> 100	–	> 100 µM	–	> 100	–	> 100	–	> 100 µM
N#CC1=C(N)Oc2cc(O)ccc2C1c1cccc2ccccc12 (centres undefined)	13.4 µM	29.8	17.2 µM	35	16.5 µM	38.2 µM	17	> 100 µM	13.5 µM	31.7	14.8 µM	35.4	5.72 µM	21.6 µM	5.21 µM	29.2	10.9 µM	41.7	16.5 µM	36.5 µM
Cc1nc(-[n+]2nc(-c3ccncc3)nn2-c2ccccc2)sc1C	–	> 100	–	> 100	–	> 100 µM	–	> 100 µM	–	31.9	–	> 100	–	> 100 µM	–	> 100	–	> 100	–	69.2 µM
CC1=C(C(=O)Nc2ccc(Cl)c(Cl)c2)C(c2cccc(Oc3ccccc3)c2)NC(=O)N1 (centres undefined)	10.2 µM	20.8	6.6 µM	17.3	12.6 µM	35.7 µM	5.21	16.3 µM	14.6 µM	26.5	4.33 µM	13.8	17.8 µM	31.7 µM	16.3 µM	> 50	13.4 µM	> 50	6.78 µM	17 µM
COC(=O)[C@@H](C)C[C@H](Cc1ccccc1)NC(=O)c1csc([C@@H](C[C@H](C(C)C)N(C)C(=O)[C@@H](NC(=O)[C@H]2CCCCN2C)C2CCCCC2)OC(C)=O)n1	0.00175 µM and 0.0025 µM	2.74	0.000746 µM and 0.0025 µM	> 25	0.000301 µM and < 0.0025 µM	0.0026 µM and < 0.0025 µM	0.00278	–	0.00213 µM and 0.0025 µM	> 25	0.00139 µM and 0.0025 µM	23	0.000304 µM and < 0.0025 µM	0.00312 µM and < 0.0025 µM	0.000435 µM and 0.0025 µM	20.9	0.000324 µM and 0.0025 µM	3.64	0.00211 µM and 0.0025 µM	0.00619 µM and 0.00859 µM
O=C(Nc1ccc(F)cc1)c1cc(S(=O)(=O)Nc2nc3ccccc3o2)c(SCc2ccccc2)cc1Cl	18.5 µM	35.3	17.5 µM	32.2	46.2 µM	> 100 µM	17.1	34 µM	17.7 µM	33.5	18 µM	34.2	16 µM	30.8 µM	24.4 µM	53.5	17.8 µM	56.8	17.1 µM	31.2 µM
C=C1C(=O)OC2CC(C)C3(O)CCC(=O)C3(C)CC12 (centres undefined)	–	59.7	–	36.2	–	> 100 µM	–	> 100 µM	–	> 100	–	> 100	–	55.6 µM	–	> 100	–	43.1	–	32.7 µM
